The results in this text go back to US10654816B2, “Compounds and compositions for treating conditions associated with NLRP activity” (NOVARTIS INFLAMMASOME RESEARCH, INC., priority 2017, dated 2020).

Where two headings read alike, the source gives them in different places.

The subject of the experiment is IL-1β production in PMA-differentiated THP-1 cells. As to the kind of experiment: IL-1β production in PMA-differentiated THP-1 cells stimulated with gramicidin (hTHP-1 assay, HTRF readout; Procedures 1-3). The format is cell-based, human. Particulars: average, read-out: hTHP-1 IC50 (Average IC50 of compounds in hTHP-1 assay). The procedure:
The Following Protocol is Suitable for Testing the Activity of the Compounds Disclosed Herein. Procedure 1: IL-1B Production in PMA-Differentiated THP-1 Cells Stimulated with Gramicidin.
THP-1 cells were purchased from the American Type Culture Collection and sub-cultured according to instructions from the supplier. Cells were cultured in complete RPMI 1640 (containing 10% heat inactivated FBS, penicillin (100 units/ml) and streptomycin (100 μg/ml)), and maintained in log phase prior to experimental setup. Prior to the experiment, compounds were dissolved in dimethyl sulfoxide (DMSO) to generate a 30 mM stock. The compound stock was first pre-diluted in DMSO to 3, 0.34, 0.042 and 0.0083 mM intermediate concentrations and subsequently spotted using Echo550 liquid handler into an empty 384-well assay plate to achieve desired final concentration (e.g. 100, 33, 11, 3.7, 1.2, 0.41, 0.14, 0.046, 0.015, 0.0051, 0.0017 μM). DMSO was backfilled in the plate to achieve a final DMSO assay concentration of 0.37%. The plate was then sealed and stored at room temperature until required.
THP-1 cells were treated with PMA (Phorbol 12-myristate 13-acetate) (20 ng/ml) for 16-18 hours. On the day of the experiment the media was removed and adherent cells were detached with trypsin for 5 minutes. Cells were then harvested, washed with complete RPMI 1640, spun down, and resuspended in RPMI 1640 (containing 2% heat inactivated FBS, penicillin (100 units/ml) and streptomycin (100 μg/ml). The cells were plated in the 384-well assay plate containing the spotted compounds at a density of 50,000 cells/well (final assay volume 50 μl). Cells were incubated with compounds for 1 hour and then stimulated with gramicidin (5 μM) (Enzo) for 2 hours. Plates were then centrifuged at 340 g for 5 min. Cell free supernatant (40 μL) was collected using a 96-channel PlateMaster (Gilson) and the production of IL-1β was evaluated by HTRF (cisbio). The plates were incubated for 18 h at 4° C. and read using the preset HTRF program (donor emission at 620 nm, acceptor emission at 668 nm) of the SpectraMax i3x spectrophotometer (Molecular Devices, software SoftMax 6). A vehicle only control and a dose titration of CRID3 (100-0.0017 μM) were run concurrently with each experiment.
Procedure 2: IL-1β Production in PMA-Differentiated THP-1 Cells Stimulated with Gramicidin.
THP-1 cells were purchased from the American Type Culture Collection and sub-cultured according to instructions from the supplier. Prior to experiments, cells were cultured in complete RPMI 1640 (containing 10% heat inactivated FBS, penicillin (100 units/ml) and streptomycin (100 μg/ml)), and maintained in log phase prior to experimental setup. Prior to the experiment THP-1 were treated with PMA (Phorbol 12-myristate 13-acetate) (20 ng/ml) for 16-18 hours. Compounds were dissolved in dimethyl sulfoxide (DMSO) to generate a 30 mM stock.
On the day of the experiment the media was removed and adherent cells were detached with trypsin for 5 minutes. Cells were then harvested, washed with complete RPMI 1640, spun down, resuspended in RPMI 1640 (containing 2% heat inactivated FBS, penicillin (100 units/ml) and streptomycin (100 μg/ml). The cells were plated in a 384-well plate at a density of 50,000 cells/well (final assay volume 50 μl). Compounds were first dissolved in assay medium to obtain a 5× top concentration of 500 μM. 10 step dilutions (1:3) were then undertaken in assay medium containing 1.67% DMSO. 5× compound solutions were added to the culture medium to achieve desired final concentration (e.g. 100, 33, 11, 3.7, 1.2, 0.41, 0.14, 0.046, 0.015, 0.0051, 0.0017 μM). Final DMSO concentration was at 0.37%. Cells were incubated with compounds for 1 hour and then stimulated with gramicidin (5 μM) (Enzo) for 2 hours. Plates were then centrifuged at 340 g for 5 min. Cell free supernatant (40 μL) was collected using a 96-channel PlateMaster (Gilson) and the production of IL-1β was evaluated by HTRF (cisbio). […]
Background: Time-resolved FRET reads energy transfer from a long-lived donor to a nearby acceptor.

The mark [1] stands for this setting: Homo sapiens, THP-1, hTHP-1 assay containing 2% fetal bovine serum, class symbols.
[2] abbreviates: Homo sapiens, THP-1, hTHP-1 assay containing 2% fetal bovine serum, given as bound.
Where [3] appears, read: hTHP-1 assay containing 2% fetal bovine serum, class symbols.

As to `CC(C)c1cc(C#N)cc(C(C)C)c1NC(=O)N=S(N)(=O)c1sc(C(C)(C)O)nc1CO` (single isomer, unassigned) [Example 192, (S)- or (R)-N′-((4-cyano-2,6-diisopropylphenyl)carbamoyl)-4-(hydroxymethyl)-2-(2-hydroxypropan-2-yl)thiazole-5-sulfonimidamide], under setting [1], the concentration for half-maximal inhibition (IC50) (usually the concentration that gives 50% inhibition) lay in the range of 0.2 to 1 µM. Regarding `CC(C)c1cc(C#N)cc(C(C)C)c1NC(=O)N=S(N)(=O)c1sc(C(C)(C)O)nc1CO` (single isomer, unassigned) [Example 193, (R)- or (S)-N′-((4-cyano-2,6-diisopropylphenyl)carbamoyl)-4-(hydroxymethyl)-2-(2-hydroxypropan-2-yl)thiazole-5-sulfonimidamide], the IC50 under setting [2] was above 30 µM.

With `CC(C)c1cc(C#N)cc(C(C)C)c1NC(=O)N=S(N)(=O)c1ccc(S(C)(=O)=O)cc1` (single isomer, unassigned) [Example 196, (S)- or (R)-N′-((4-cyano-2,6-diisopropylphenyl)carbamoyl)-4-(methylsulfonyl)-benzenesulfonimidamide], the IC50 under setting [1] lay in the range of 5 to 30 µM. With `CC(C)c1cc(C#N)cc(C(C)C)c1NC(=O)N=S(N)(=O)c1ccc(S(C)(=O)=O)cc1` (single isomer, unassigned) [Example 197, (R)- or (S)-N′-((4-cyano-2,6-diisopropylphenyl)carbamoyl)-4-(methyl-sulfonyl)benzenesulfonimidamide], the concentration for half-maximal inhibition (IC50) under setting [2] is above 30 µM. Take `CC(C)c1cc(C#N)cc(C(C)C)c1NC(=O)N=S(N)(=O)c1cc(C(C)(C)O)cc(C(C)(C)O)c1` (single isomer, unassigned) [Example 198, N′-((4-cyano-2,6-diisopropylphenyl)carbamoyl)-3,5-bis-(2-hydroxypropan-2-yl)benzenesulfonimidamide]: the IC50 under setting [1] fell in the range of 5 to 30 µM.

Take `CC(C)c1cc(C#N)cc(C(C)C)c1NC(=O)N=S(N)(=O)c1cc(C(C)(C)O)cc(C(C)(C)O)c1` (single isomer, unassigned) [Example 199, N′-((4-cyano-2,6-diisopropylphenyl)carbamoyl)-3,5-bis-(2-hydroxypropan-2-yl)benzenesulfonimidamide]: under setting [2], the IC50 is above 30 µM.

In the case of `CC(C)(O)c1ncc([S@](N)(=O)=NC(=O)Nc2c3c(cc4c2CC4)CCC3)s1` (single isomer, unassigned) [Example 224], under setting [3], the half-maximal inhibitory concentration (IC50) lay in the range of 0.008 to 0.04 µM. For `CC(C)(O)c1ncc([S@@](N)(=O)=NC(=O)Nc2c3c(cc4c2CC4)CCC3)s1` (single isomer, unassigned) [Example 225], the IC50 under setting [3] was 1 to 5 µM. On to `C#CCCC(=O)N(C)Cc1ccc(S(N)(=O)=NC(=O)Nc2c3c(cc4c2CCC4)CCC3)cc1` (single isomer, unassigned) [Example 312, (S) or (R)-N-(4-(N′-((1,2,3,5,6,7-hexahydro-s-indacen-4-yl)carbamoyl)sulfamid-imidoyl)benzyl)-N-methylpent-4-ynamide], for which the IC50 under setting [1] fell in the range of 1 to 5 µM. `C#CCCC(=O)N(C)Cc1ccc(S(N)(=O)=NC(=O)Nc2c3c(cc4c2CCC4)CCC3)cc1` (single isomer, unassigned) [Example 313, (R) or (S)-N-(4-(N′-((1,2,3,5,6,7-hexahydro-s-indacen-4-yl)carbamoyl)sulfamid-imidoyl)benzyl)-N-methylpent-4-ynamide]: the concentration for half-maximal inhibition (IC50) under setting [3] is 1 to 5 µM.

Take `CCc1ccc2cn[nH]c2c1NC(=O)N=S(N)(=O)c1cnc(C(C)(C)O)s1` (single isomer, unassigned) [Example 325, (S) or (R)-N′-((6-ethyl-1H-indazol-7-yl)carbamoyl)-2-(2-hydroxypropan-2-yl)thiazole-5-sulfonimidamide]: the IC50 (Homo sapiens, THP-1, hTHP-1 assay containing 2% fetal bovine serum, numeric bound printed without unit) is above 28.4 µM. In the case of `CCc1ccc2cn[nH]c2c1NC(=O)N=S(N)(=O)c1cnc(C(C)(C)O)s1` (single isomer, unassigned) [Example 326, (R) or (S)-N′-((6-ethyl-1H-indazol-7-yl)carbamoyl)-2-(2-hydroxypropan-2-yl)thiazole-5-sulfonimidamide], under setting [1], the concentration for half-maximal inhibition (IC50) lay in the range of 5 to 30 µM.

For `CCc1ccc2cnn(C)c2c1NC(=O)N=S(N)(=O)c1ncc(C(C)(C)O)s1` (single isomer, unassigned) [Example 327, (S) or (R)-N′-((6-ethyl-1-methyl-1H-indazol-7-yl)carbamoyl)-5-(2-hydroxypropan-2-yl)thiazole-2-sulfonimidamide], under setting [2], the IC50 was above 30 µM. Turning to `CCc1ccc2cnn(C)c2c1NC(=O)N=S(N)(=O)c1ncc(C(C)(C)O)s1` (single isomer, unassigned) [Example 328, (R) or (S)-N′-((6-ethyl-1-methyl-1H-indazol-7-yl)carbamoyl)-5-(2-hydroxypropan-2-yl)thiazole-2-sulfonimidamide], the IC50 under setting [1] lay in the range of 1 to 5 µM. Regarding `CCc1ccc2cn(C)nc2c1NC(=O)N=S(N)(=O)c1ncc(C(C)(C)O)s1` (single isomer, unassigned) [Example 329, (S) or (R)-N′-((6-ethyl-2-methyl-2H-indazol-7-yl)carbamoyl)-5-(2-hydroxypropan-2-yl)thiazole-2-sulfonimidamide], the IC50 under setting [2] was above 30 µM. As to `CCc1ccc2cn(C)nc2c1NC(=O)N=S(N)(=O)c1ncc(C(C)(C)O)s1` (single isomer, unassigned) [Example 330, (R) or (S)-N′-((6-ethyl-2-methyl-2H-indazol-7-yl)carbamoyl)-5-(2-hydroxypropan-2-yl)thiazole-2-sulfonimidamide], the IC50 (hTHP-1 assay containing 2% fetal bovine serum, given as bound) was above 30 µM. In the case of `CC(C)(O)c1ncc(S(N)(=O)=NC(=O)Nc2c3c(cc4c2CCC4O)CCC3)s1` (single isomer, unassigned) [Example 337, (R, R) or (R, S)-N′-((l-hydroxy-1,2,3,5,6,7-hexahydro-s-indacen-4-yl)carbamoyl)-2-(2-hydroxypropan-2-yl)thiazole-5-sulfonimidamide], the IC50 under setting [1] lay in the range of 1 to 5 µM. With `CC(C)(O)c1ncc(S(N)(=O)=NC(=O)Nc2c3c(cc4c2CCC4O)CCC3)s1` (single isomer, unassigned) [Example 338, (R, S) or (R, R)-N′-((1-hydroxy-1,2,3,5,6,7-hexahydro-s-indacen-4-yl)carbamoyl)-2-(2-hydroxypropan-2-yl)thiazole-5-sulfonimidamide], the concentration for half-maximal inhibition (IC50) under setting [3] was 1 to 5 µM. Consider `CC(C)(O)c1ncc(S(N)(=O)=NC(=O)Nc2c3c(cc4c2CCC4O)CCC3)s1` (single isomer, unassigned) [Example 339, (S, S) or (S, R)-N′-((l-hydroxy-1,2,3,5,6,7-hexahydro-s-indacen-4-yl)carbamoyl)-2-(2-hydroxypropan-2-yl)thiazole-5-sulfonimidamide], for which the IC50 under setting [3] lay in the range of 1 to 5 µM.

As to `CC(C)(O)c1ncc(S(N)(=O)=NC(=O)Nc2c3c(cc4c2CCC4O)CCC3)s1` (single isomer, unassigned) [Example 340, (S, R) or (S, S)-N′-((1-hydroxy-1,2,3,5,6,7-hexahydro-s-indacen-4-yl)carbamoyl)-2-(2-hydroxypropan-2-yl)thiazole-5-sulfonimidamide], under setting [3], the IC50 was in the range of 1 to 5 µM.
